Source: patent US8557804B2, “Nicotinic receptor agonists for the treatment of inflammatory diseases” (priority 2002, dated 2013)

Legend:
[1] = system: TNF-α mRNA expression in AMJ2-C11 cells; test: TNF-α mRNA expression by RT-PCR in AMJ2-C11 cells; type: cell-based, mouse; settings: SR-stimulated 24 h, 40 and 80 μM
Description: The effect of nicotine or DMPP treatment on AMJ2-C11 cells was tested on TNF-α, IL-10 mRNA expression by RT-PCR. These cytokines are involved in the development of pulmonary inflammatory diseases such as HP, asthma and sarcoidosis (52-55). […] Reference is made to FIG. 3 where results are expressed as a % of expression, 100% being attributed to the LPS alone group. The intensity of the band was obtained by dividing the intensity of the TNF-α band by that of β-actin. […] Reference is made to FIG. 4 where results are expressed as described in FIG. 5.

[2] = system: CD80 expression on AMJ2-C11 cells; test: B7 (CD80) molecule expression on AMJ2-C11 cells; type: cell-based, mouse; settings: 40 μM for 48 h
Description: The effects of nicotine and DMPP on B7 (CD80) molecule expression were tested in vitro. AMJ2-C11 cells (mouse alveolar macrophages, from the ATCC) were incubated with 40 μM nicotine or DMPP and stimulated with LPS (0.1 μg/ml) or SR antigen (50 μg/ml) for 48 hours.

[3] = system: lung resistance after metacholine challenge; test: Airway hyper-reactivity / lung resistance to metacholine in asthmatic mice (FlexiVENT); type: in vivo; settings: 0.5 mg/kg intranasal DMPP
Description: Airway hyper-reactivity (AHR) in response to metacholine was measured in anesthetized, tracheotomized, ventilated mice using a computer-controlled ventilator (FlexiVENT™).
Increasing doses of metacholine (0 mg/kg-32.5 mg/kg) were administered through the jugular vein.
Lung response to a broncho-constrictive agent, metacholine, was measured by a Flexi-vent® apparatus. Ovalbumin-sensitized animals were treated intra-nasally with ASM-002 (4 mg/kg) during 3 days and 10 minutes prior to the metacholine challenge and compared to untreated OVA-sensitized animals. A negative control group of un-sensitized animals and a positive control group that received Salbutamol (Ventolin) 10 minutes before the metacholine challenge were also included.

Compound: C[N+]1(C)CCN(c2ccccc2)CC1 [DMPP, Dimethylphenylpiperazinium]
- reduction of TNF-α mRNA expression [1]: up to 60%
- percentage of expression of CD80 ([2]; LPS (0.1 μg/ml) stimulated, LPS alone 38%): 17%
- percentage of expression of CD80 ([2]; SR antigen (50 μg/ml) stimulated, SR alone 35%): 20%
- % of augmentation of lung resistance compared to asthmatic mice ([3]; metacholine 0-32.5 mg/kg): reduced
- PC200 (provocative challenge dose of 200% lung resistance augmentation) compared to asthmatic mice ([3]; p=0.04, n=6): significantly reduced
